Reference: ChEMBL document CHEMBL5550122, “Photodynamic anticancer activity evaluation of novel 5-aminolevulinic acid and 3-hydroxypyridinone conjugates” (Bioorg Med Chem, 2024)
Active and inactive are the calls of the source. No cut-off for these calls is given here.

Key:
[1] = (§1) Prodrug release in human MCF7 cells assessed as 3-[(1Z,4Z,9Z,15Z)-7-(2-carboxyethyl)-3,8,12,17-tetramethyl-13,18-divinyl-21,23-dihydroporphyrin-2-yl]propanoic acid release by measuring fold increase in fluorescence intensity at 20 to 80 uM by microplate reader analysis relative to 5-Aminolevulinic acid; type: ADME, cell-based; conditions: mcf7, 80 µM, dose 20-80 µM
[2] = Drug metabolism assessed as esterase (unknown origin) mediated hydrolysis by measuring hydroxypyridinone formation; type: ADME; conditions: human
[3] = as §1, with “A-375” for “MCF7”; type: ADME, cell-based; conditions: a-375, 80 µM, dose 20-80 µM
[4] = Prodrug release in human Hela cells assessed as 3-[(1Z,4Z,9Z,15Z)-7-(2-carboxyethyl)-3,8,12,17-tetramethyl-13,18-divinyl-21,23-dihydroporphyrin-2-yl]propanoic acid release by measuring increase in fluorescence intensity at 20 to 80 uM by microplate reader analysis; type: ADME, cell-based; conditions: dose 20-80 µM
[5] = Prodrug release in human MCF7 cells assessed as 3-[(1Z,4Z,9Z,15Z)-7-(2-carboxyethyl)-3,8,12,17-tetramethyl-13,18-divinyl-21,23-dihydroporphyrin-2-yl]propanoic acid release by measuring increase in fluorescence intensity at 20 to 80 uM by microplate reader analysis; type: ADME, cell-based; conditions: mcf7, 80 µM, dose 20-80 µM
HeLa [6] = assay: Cytotoxicity against human HeLa cells assessed as reduction in cell viability preincubated for 4 hrs under dark condition followed by irradiation with blue light at 2.5 J.cm^-2 energy level for 5 mins and measured after 18 hrs by MTT assay; type: functional, cell-based; conditions: light or radiation study
[7] = Drug metabolism assessed as esterase (unknown origin) mediated hydrolysis by measuring 5-Aminolevulinic acid formation; type: ADME; conditions: human
A-375 [8] = assay: Cytotoxicity against human A-375 cells assessed as reduction in cell viability at 100 uM incubated for 4 hrs under dark condition by MTT assay; type: functional, cell-based
[9] = Prodrug release in human A-375 cells assessed as 3-[(1Z,4Z,9Z,15Z)-7-(2-carboxyethyl)-3,8,12,17-tetramethyl-13,18-divinyl-21,23-dihydroporphyrin-2-yl]propanoic acid release by measuring increase in fluorescence intensity at 20 to 80 uM by microplate reader analysis; type: ADME, cell-based; conditions: a-375, 80 µM, dose 20-80 µM
MCF7 [10] = assay: Cytotoxicity against human MCF7 cells assessed as reduction in cell viability preincubated for 4 hrs under dark condition followed by irradiation with blue light at 2.5 J.cm^-2 energy level for 5 mins and measured after 18 hrs by MTT assay; type: functional, cell-based; conditions: MCF7, light or radiation study
A-375 [11] = assay: Cytotoxicity against human A-375 cells assessed as reduction in cell viability preincubated for 4 hrs under dark condition followed by irradiation with blue light at 2.5 J.cm^-2 energy level for 5 mins and measured after 18 hrs by MTT assay; type: functional, cell-based; conditions: A-375, light or radiation study
HeLa [12] = assay: Cytotoxicity against human HeLa cells assessed as reduction in cell viability at 100 uM incubated for 4 hrs under dark condition by MTT assay; type: functional, cell-based
MCF7 [13] = assay: Cytotoxicity against human MCF7 cells assessed as reduction in cell viability at 100 uM incubated for 4 hrs under dark condition by MTT assay; type: functional, cell-based
[14] = as §1, with “Hela” for “MCF7”; type: ADME, cell-based; conditions: dose 20-80 µM

- fold change (FC) [1]: 5.3
- Drug metabolism [2]: Metabolite_Detected
- fold change (FC) [3]: 2.8
- Drug metabolism [4]: Metabolite_Detected
- Drug metabolism [5]: Metabolite_Detected
- Drug metabolism [7]: Metabolite_Detected
- Drug metabolism [9]: Metabolite_Detected
- fold change (FC) [14]: 18.9
Structure (SMILES): CCCCCCn1c(C)cc(=O)c(O)c1COC(=O)CCC(=O)CN.Cl
- IC50 (HeLa [6]): 24.2 µM
- Activity (A-375 [8]): inactive
- IC50 (MCF7 [10]): 43.3 µM
- IC50 (A-375 [11]): 28 µM
- Activity (HeLa [12]): inactive
- Activity (MCF7 [13]): inactive
